Measured values: publication PMC11204923, “Marine Cytotoxin Santacruzamate A Derivatives as Potent HDAC1-3 Inhibitors and Their Synergistic Anti-Leukemia Effects with Venetoclax” (Marine Drugs, 2024)

What was measured:
Type in all cases: biochemical
[1] = target: T1, HDAC1 (Homo sapiens, UniProt Q13547); test: In vitro HDAC inhibition fluorescence assay, HDAC1; details: for inhibition at 0.01 µM: 10 nM; for inhibition at 0.01 µM / inhibition at 0.1 µM: read-out: Inhibition Rate of HDAC1 (%); for inhibition at 0.1 µM: 100 nM
T1 construct: purchased BPS Bioscience
T1 sequence (Q13547 whole entry): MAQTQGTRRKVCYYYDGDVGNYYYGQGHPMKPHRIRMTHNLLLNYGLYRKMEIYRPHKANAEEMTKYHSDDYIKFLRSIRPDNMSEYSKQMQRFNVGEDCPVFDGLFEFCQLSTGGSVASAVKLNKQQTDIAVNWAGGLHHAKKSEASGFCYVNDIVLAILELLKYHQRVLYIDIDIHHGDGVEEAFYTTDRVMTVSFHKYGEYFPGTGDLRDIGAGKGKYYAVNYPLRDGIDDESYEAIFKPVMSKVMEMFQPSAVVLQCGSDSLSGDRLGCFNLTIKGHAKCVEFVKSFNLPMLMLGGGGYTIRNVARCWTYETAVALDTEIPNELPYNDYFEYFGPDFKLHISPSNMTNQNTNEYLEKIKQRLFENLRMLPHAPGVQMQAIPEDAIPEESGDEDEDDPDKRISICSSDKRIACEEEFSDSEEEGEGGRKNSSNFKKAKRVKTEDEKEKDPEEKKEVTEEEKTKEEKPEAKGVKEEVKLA
Method: (§1) All of the HDAC enzymes were purchased from BPS Bioscience. In vitro HDAC inhibition assays were conducted as previously described. In brief, 20 μL of recombinant HDAC enzyme solution (HDAC1-9, 11) was mixed with various concentrations of the tested compound (20 μL). […] After incubation at 37 °C for 2 h, the catalysis was stopped by the addition of 10 μL of developer containing 30 mg/mL trypsin and 6 μM trichostatin A (TSA). Then, 30 min later, the fluorescence intensity was measured using a microplate reader at excitation and emission wavelengths of 360 and 460 nm, respectively. The inhibition ratios were calculated from the fluorescence intensity readings of tested wells relative to those of control wells, and the IC50 curves and values were determined by GraphPad Prism 6.0, using the “log(inhibitor) vs. normalized response-variable slope” function.

[2] = target: T2, HDAC3 (Homo sapiens, UniProt O15379); test: In vitro HDAC inhibition fluorescence assay, HDAC3; details: for inhibition at 0.01 µM: 10 nM; for inhibition at 0.01 µM / inhibition at 0.1 µM: read-out: Inhibition Rate of HDAC3 (%); for inhibition at 0.1 µM: 100 nM
T2 construct: purchased BPS Bioscience
T2 sequence (O15379 whole entry): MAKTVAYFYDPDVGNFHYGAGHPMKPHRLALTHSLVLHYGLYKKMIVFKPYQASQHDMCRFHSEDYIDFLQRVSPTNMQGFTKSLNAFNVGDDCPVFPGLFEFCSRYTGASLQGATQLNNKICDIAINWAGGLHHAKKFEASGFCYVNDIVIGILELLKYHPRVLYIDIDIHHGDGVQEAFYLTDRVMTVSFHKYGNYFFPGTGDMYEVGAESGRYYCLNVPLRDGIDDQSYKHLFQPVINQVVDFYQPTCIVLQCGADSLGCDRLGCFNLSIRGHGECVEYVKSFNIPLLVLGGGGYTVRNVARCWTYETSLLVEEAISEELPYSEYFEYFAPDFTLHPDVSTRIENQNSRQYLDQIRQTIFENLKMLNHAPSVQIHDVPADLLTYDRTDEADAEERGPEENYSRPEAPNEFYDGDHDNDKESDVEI
T2 sequence (Q9Y618 395-489 partner limits assumed): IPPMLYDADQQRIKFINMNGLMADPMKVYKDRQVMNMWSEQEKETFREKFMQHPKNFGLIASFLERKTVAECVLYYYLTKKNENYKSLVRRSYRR
Method: as §1

[3] = target: T3, HDAC2 (Homo sapiens, UniProt Q92769); test: In vitro HDAC inhibition fluorescence assay, HDAC2
T3 construct: purchased BPS Bioscience
T3 sequence (Q92769 whole entry): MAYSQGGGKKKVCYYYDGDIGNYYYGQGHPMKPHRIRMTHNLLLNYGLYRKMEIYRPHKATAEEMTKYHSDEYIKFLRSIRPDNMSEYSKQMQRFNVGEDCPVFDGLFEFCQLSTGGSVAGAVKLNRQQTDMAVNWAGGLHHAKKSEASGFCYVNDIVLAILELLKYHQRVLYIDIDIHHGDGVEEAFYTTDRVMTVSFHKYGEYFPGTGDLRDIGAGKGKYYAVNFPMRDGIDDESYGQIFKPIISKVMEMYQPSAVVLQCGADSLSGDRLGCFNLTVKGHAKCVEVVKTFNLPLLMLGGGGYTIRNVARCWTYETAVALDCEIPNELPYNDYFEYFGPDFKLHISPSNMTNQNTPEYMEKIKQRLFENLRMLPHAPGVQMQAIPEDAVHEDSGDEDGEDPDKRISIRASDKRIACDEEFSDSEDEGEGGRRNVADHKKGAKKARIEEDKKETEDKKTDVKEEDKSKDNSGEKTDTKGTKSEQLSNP
Method: as §1

inhibition at 0.01 µM [1]	inhibition at 0.1 µM [1]	inhibition at 0.01 µM [2]	inhibition at 0.1 µM [2]	IC50 [1]	IC50 [3]	IC50 [2]	SMILES
-6.8 ± 2.1%	14.4 ± 2.4%	16.1 ± 3.3%	54.4 ± 0.7%	–	–	–	CCCNNC(=O)CCCCCNC(=O)Cc1ccccc1 [Compound 14c, N-(6-Oxo-6-(2-propylhydrazineyl)hexyl)-2-phenylacetamide]
8.1 ± 0.3%	39.9 ± 0.6%	37.4 ± 0.1%	78.2 ± 0.5%	–	–	–	CCCNNC(=O)C=Cc1ccc(C(=O)NC2Cc3ccccc3C2)cc1 [Compound 19a, N-(2,3-Dihydro-1H-inden-2-yl)-4-(3-oxo-3-(2-propylhydrazineyl)prop-1-en-1-yl)benzamide]
31.3%	71.2 ± 0.9%	25.7 ± 1.3%	60.7 ± 0.5%	–	–	–	CCCNNC(=O)C=Cc1ccc(CNc2cccc3ccccc23)cc1 [Compound 25f, 3-(4-((Naphthalen-1-ylamino)methyl)phenyl)-N′-propylacrylohydrazide]
-4.6 ± 2.1%	-0.4 ± 1.7%	-1.1 ± 2.3%	18.3 ± 0.5%	–	–	–	CCCNNC(=O)C=Cc1ccc(C(=O)N2CCc3ccccc3C2)cc1 [Compound 19b, N′-Propyl-3-(4-(1,2,3,4-tetrahydroisoquinoline-2-carbonyl)phenyl)acrylohydrazide]
9.3 ± 2.3%	61.7 ± 1.1%	62.5 ± 0.4%	86.9 ± 0.1%	101 ± 27 nM	314 ± 36.7 nM	13 ± 6.4 nM	CCCNNC(=O)C=Cc1ccc(CNCc2ccccn2)cc1 [Compound 25d, N′-Propyl-3-(4-(((pyridin-2-ylmethyl)amino)methyl)phenyl)acrylohydrazide]
9.8 ± 0.4%	32.7 ± 1.2%	3.2 ± 10.6%	48.8 ± 1.1%	–	–	–	CCCNNC(=O)CCCCCCCCNC(=O)Cc1ccccc1 [Compound 14f, N-(9-Oxo-9-(2-propylhydrazineyl)nonyl)-2-phenylacetamide]
-1.4 ± 0.5%	38.2 ± 2.3%	-0.4 ± 3.4%	34.8 ± 1.2%	–	–	–	CCCNNC(=O)C=Cc1ccc(C(=O)N2CCc3ccc(Br)cc3C2)cc1 [Compound 19d, 3-(4-(7-Bromo-1,2,3,4-tetrahydroisoquinoline-2-carbonyl)phenyl)-N′-propylacrylohydrazide]
-9.04 ± 0.1%	7.7 ± 2.1%	16.6 ± 3.2%	45.2 ± 1.1%	–	–	–	CCCNNC(=O)CCCCNC(=O)Cc1ccccc1 [Compound 14b, N-(5-Oxo-5-(2-propylhydrazineyl)pentyl)-2-phenylacetamide]
1.5 ± 1.5%	27.2 ± 2.8%	4.1 ± 9.9%	38.1 ± 0.8%	–	–	–	CCCNNC(=O)C=Cc1ccc(C(=O)N2CCc3cc(Br)ccc3C2)cc1 [Compound 19c, 3-(4-(6-Bromo-1,2,3,4-tetrahydroisoquinoline-2-carbonyl)phenyl)-N′-propylacrylohydrazide]
8.8 ± 3.7%	51.6 ± 0.9%	23.1 ± 0.1%	71.5 ± 0.7%	–	–	–	CCCNNC(=O)CCCCCCCNC(=O)Cc1ccccc1 [Compound 14e, N-(8-Oxo-8-(2-propylhydrazineyl)octyl)-2-phenylacetamide]
1.9 ± 3.7%	43.2 ± 0.1%	21.2 ± 1.5%	76.8 ± 0.4%	–	–	–	CCCNNC(=O)CCCCCCNC(=O)Cc1ccccc1 [Compound 14d, N-(7-Oxo-7-(2-propylhydrazineyl)heptyl)-2-phenylacetamide]
-7 ± 2.6%	2.3 ± 2.4%	2.4 ± 2.9%	18.2 ± 3.3%	–	–	–	CCCNNC(=O)CCCNC(=O)Cc1ccccc1 [Compound 14a, N-(4-Oxo-4-(2-propylhydrazineyl)butyl)-2-phenylacetamide]
14.2 ± 1.5%	60.7 ± 0.7%	49.2 ± 0.9%	80.4 ± 0.7%	96.5 ± 1.1 nM	224 ± 19.4 nM	8.2 ± 0.9 nM	CCCNNC(=O)C=Cc1ccc(CNc2ccccc2)cc1 [Compound 25a, 3-(4-((Phenylamino)methyl)phenyl)-N′-propylacrylohydrazide]

The remaining lines, values behind:

SMILES	inhibition at 0.01 µM [1]	inhibition at 0.1 µM [1]	inhibition at 0.01 µM [2]	inhibition at 0.1 µM [2]	IC50 [1]	IC50 [3]	IC50 [2]
CCCNNC(=O)CCCCCCCC(=O)NCCc1ccccc1 [Compound 9f, 9-Oxo-N-phenethyl-9-(2-propylhydrazineyl)nonanamide]	15.9 ± 1.6%	57.1 ± 0.7%	19.6 ± 8%	79.9 ± 0.8%	–	–	–
CCCNNC(=O)CCCCCCC(=O)NCCc1ccccc1 [Compound 9e, 8-Oxo-N-phenethyl-8-(2-propylhydrazineyl)octanamide]	12 ± 0.9%	65.6 ± 0.1%	38.8 ± 3%	85.5 ± 0.6%	–	–	–
CCCNNC(=O)CCc1ccc(C(=O)NCCc2ccccc2)cc1 [Compound 9k, 4-(3-Oxo-3-(2-propylhydrazineyl)propyl)-N-phenethylbenzamide]	23.1 ± 2.1%	67.9 ± 1.4%	–	–	122 ± 18.6 nM	374 ± 21.7 nM	–
CCCNNC(=O)c1ccc(C=CC(=O)NCCc2ccccc2)cc1 [Compound 9l, N-Phenethyl-3-(4-(2-propylhydrazine-1-carbonyl)phenyl)acrylamide]	36.5 ± 2.1%	74.5 ± 0.3%	78.1 ± 0.1%	87.2 ± 2.6%	37.4 ± 5.8 nM	116 ± 11.4 nM	6 ± 1.7 nM
CCCNNC(=O)c1ccc(CC(=O)NCCc2ccccc2)cc1 [Compound 9h, N-Phenethyl-2-(4-(2-propylhydrazine-1-carbonyl)phenyl)acetamide]	5.61 ± 1.6%	10.1 ± 0.7%	-4.61 ± 13.6%	-5.9 ± 0.6%	–	–	–
CCCNNC(=O)C=Cc1ccc(C(=O)NCCc2ccccc2)cc1 [Compound 9j, 4-(3-Oxo-3-(2-propylhydrazineyl)prop-1-en-1-yl)-N-phenethylbenzamide]	32.8 ± 0.1%	76.7 ± 0.3%	–	–	35.8 ± 3.6 nM	69.4 ± 3.4 nM	–
CCCNNC(=O)CCCCC(=O)NCCc1ccccc1 [Compound 9c, 6-Oxo-N-phenethyl-6-(2-propylhydrazineyl)hexanamide]	-6 ± 1.2%	27.5 ± 0.6%	18.2 ± 2.9%	61.9 ± 0.7%	–	–	–
CCCNNC(=O)c1ccc(C(=O)NCCc2ccccc2)cc1 [Compound 9g, N-Phenethyl-4-(2-propylhydrazine-1-carbonyl)benzamide]	23.5 ± 2%	30.1 ± 2.1%	11.2 ± 8%	50.6 ± 5.4%	–	–	–
CCCNNC(=O)Cc1ccc(C(=O)NCCc2ccccc2)cc1 [Compound 9i, 4-(2-Oxo-2-(2-propylhydrazineyl)ethyl)-N-phenethylbenzamide]	12.5 ± 0.2%	16.4 ± 1.2%	-0.8 ± 4.2%	-3.1 ± 3.4%	–	–	–
CCCNNC(=O)CCCCCC(=O)NCCc1ccccc1 [Compound 9d, 7-Oxo-N-phenethyl-7-(2-propylhydrazineyl)heptanamide]	5.58 ± 2.39%	52 ± 2.86%	21.2 ± 1.5%	76.82 ± 0.47%	–	–	–
CCCNNC(=O)CCC(=O)NCCc1ccccc1 [Compound 9a, 4-Oxo-N-phenethyl-4-(2-propylhydrazineyl)butanamide]	2.2 ± 2.3%	0.3 ± 1.7%	-0.6 ± 1.9%	11.1 ± 0.5%	–	–	–
CCCNNC(=O)C=Cc1ccc(CN2C(=O)c3ccccc3C2=O)cc1 [Compound 30, 3-(4-((1,3-Dioxoisoindolin-2-yl)methyl)phenyl)-N′-propylacrylohydrazide]	5.1 ± 1.3%	28.4 ± 1.1%	53.9 ± 0.4%	85.1 ± 0.1%	136 ± 20.6 nM	651.9 ± 3.4 nM	27.8 ± 1.8 nM
CCCNNC(=O)CCCC(=O)NCCc1ccccc1 [Compound 9b, 5-Oxo-N-phenethyl-5-(2-propylhydrazineyl)pentanamide]	-9.2 ± 1.4%	3.1 ± 1.1%	11.5 ± 0.7%	53.7%	–	–	–
CCCNNC(=O)c1ccc(CCC(=O)NCCc2ccccc2)cc1 [Compound 9m, N-Phenethyl-3-(4-(2-propylhydrazine-1-carbonyl)phenyl)propanamide]	21.2 ± 0.9%	67.3 ± 2.8%	27.2 ± 2.7%	80.7 ± 0.7%	–	–	–
